How the values were obtained:
[1] = Gadolinium assay by ICP-MS of placentae and fetuses; type: in vivo, mouse
Protocol: (§1) 25 female Balb/c mice (7-9 weeks old; average weight 26 grams before pregnancy) were used in this study. Animals were mated with same strain males. The day when a vaginal copulation plug was detected was designated as day 0.5. Pregnant mice were imaged at day 16.5±1. Mice were sacrificed (under the institutional euthanasia protocol) immediately after MRI data collection (except for two mice that received the liposomal Gd agent, and were maintained alive for 72 hours, allowing additional time for possible transport of Gd to the fetus, and then sacrificed). Mice were dissected and the placentae and fetuses removed and transferred individually to 2 ml polycarbonate vials for storage at −81° C. These placentae and fetuses were analyzed using ICP-MS for the direct measurement of Gd concentration.
Wet tissue from placentae or pups was chopped with a scalpel into ˜3 mm pieces. A known mass of chopped tissue was then dissolved in 2-4 ml of concentrated nitric acid (14N) and heated at 100° C. till tissue completely dissolved. (Usually, about 30-45 minutes at room temperature and 3 minutes at 100° C. were sufficient). The acid solution was diluted with 10 ml of DI water, causing some precipitation of organic material. The material was centrifuged at 3000 g for 5-10 minutes, and the supernatant used for analysis. Serial dilutions over a 10^6 range were then made, and spiked with an internal standard of Bi 10 parts per billion (ppb) in 2% nitric acid. ICP-MS analysis was conducted on a Varian 810 ICP-MS system, using the manufacturer's recommended protocol for Gd assay. A spike-recovery study on blank tissue yielded linear response with >90% recovery over a range of 0-900 ppb and >96% response over a range of 0-50 ppb.

[2] = Relaxivity (r1) by variable flip angle technique at 9.4 T; type: physicochemical
Protocol: (§2) While the liposomal contrast agent has slow clearance, Multihance® clears rapidly, and timing the image acquisition is critical. We therefore opted to use the DCE-MRI technique to collect a series of images, from which the optimal time point could be selected. DCE-MRI experiments were performed on a horizontal bore 9.4 T Bruker Avance III, 20 cm bore Biospec Spectrometer (Karlsruhe, Germany) with a micro-imaging probe capable of generating gradients of (1000 mT/m). Prior to the in vivo study, the relaxivity of both agents was measured using the variable flip angle technique described in Appendix A. Similarly, the baseline relaxation rates, T1(O), for placenta and fetus were measured using the same pulse sequence as described in Appendix A.

pregnant Balb/c mice = experiment: Blinded reader rating of placental visibility in DCE-MRI; type: in vivo, mouse
Protocol: The trans-placental permeability of liposomal gadolinium (Gd) nanoparticle contrast agents was evaluated in a pregnant mouse model. Pregnant Balb/c mice at 16.5 (±1) days of gestation were imaged using a 3D Spoiled Gradient Echo method at 9.4 T using two contrast agents: a clinically approved Gd chelate, Multihance® (gadobenate dimeglumine), and a novel experimental liposomal Gd agent. A Dynamic Contrast Enhancement (DCE) protocol was used to capture the dynamics of contrast entry and distribution in the placenta, and clearance from circulation. A blinded clinical radiologist evaluated both sets of images. A reference region model was used to measure the placental flow and physiological parameters; volume transfer constant (Ktrans), efflux rate constant (Kep). The Gd content of excised placentae and fetuses was measured, using inductively coupled plasma mass spectrometry (ICP-MS). […] Image interpretation and diagnostic quality was equivalent between the two contrast agents.
as §1
Animals were anesthetized with 4% Isofluorane/air and transferred supine to the animal-imaging cradle. A 28-gauge catheter was placed in the tail vein. Once transferred to the imaging instrument, isofluorane (2%) was administered continuously via a nose cone. A pressure sensitive pillow was placed on the abdomen and taped in place to monitor respiration. The animal chamber of the imaging probe was maintained at around 30-33° C. The magnet room was maintained at 25-27° C. Heart rate was maintained at steady 50-60 beats-per-minute by adjusting the airflow and isofluorane concentration. MR imaging was performed with Multihance® in 14 mice. Liposomal Gd was used in 9 mice. Two mice were injected with saline as a control for comparison. Contrast agents were diluted to 20 mM and a dose of 0.08 mmol/kg (typically around 100 μL) were prepared for this study. The contrast agent was injected manually by the same operator (3 years of experience with small animals) and at the same rate in each mouse.
as §2
For the DCE-MRI study, baseline images without contrast enhancement were acquired, followed by a series of images acquired over time during and after the arrival of the contrast agent in the tissue of interest. A 3D-spoiled gradient recalled echo (SPGRE) pulse sequence with a fixed flip angle of 16 degrees was used over 175 measurements. Other parameters are described in Appendix A. The time for a single measurement was 9.25 seconds. […]

[3] = Placental and fetal contrast agent concentration and uptake from DCE-MRI data; type: in vivo, mouse
Excerpt: The image data was used to calculate absolute Gd concentrations using the methods in Appendix A. Contrast agent concentrations estimated from the MRI data are shown in Table 2-2 using Eqs. A4 and A5.
For the DCE-MRI study, baseline images without contrast enhancement were acquired, followed by a series of images acquired over time during and after the arrival of the contrast agent in the tissue of interest. A 3D-spoiled gradient recalled echo (SPGRE) pulse sequence with a fixed flip angle of 16 degrees was used over 175 measurements. Other parameters are described in Appendix A. The time for a single measurement was 9.25 seconds. Two minutes into the experiment, contrast was injected. Total scan time was 26 minutes and 52 seconds. The acquired signal was used to generate a time-intensity curve and the signal was converted pixel-by-pixel into concentration of the injected agent.
MRI data was transferred to an offline workstation and each placental and fetal compartment was segmented as a separate region of interest (ROI) using AMIRA V5.6 software (FEI Visualization Sciences Group, Hillsboro, Oreg.). The segmented regions were transferred to Matlab (Matlab 7.6.0, MathWorks, Natick, Mass., USA) to create a pixel-by-pixel T1(0) map and T1(t) map as described in Appendix A. Two placental zones were identified visually from the signal enhancement pattern: the labyrinth zone characterized by early flow enhancement and a peripheral region (maternal decidua) characterized by late flow enhancement that began after the central labyrinth enhancement peaked. The two zones together constitute the entire placenta.

[4] = system: pregnant Sprague Dawley rats; experiment: DCE-MRI visualization of the retroplacental space; type: in vivo, rat; conditions: 0.15 mmol Gd/kg, 20 minute post-contrast acquisition
Protocol: In the study with the conventional Gd contrast agent, dynamic contrast enhanced MRI (DCE-MRI) was performed using gadoterate meglumine (Gd-DOTA, Dotarem®) to evaluate visualization of the retroplacental space. DCE-MRI was performed using a T1w 2D gradient echo sequence (GRE) sequence with the following scan parameters: TE=3.5 ms, TR=15 ms, FA=25, slice thickness=0.8 or 1.6 mm, NEX=12; temporal resolution=47 s. Four non-contrast, baseline images were acquired followed by bolus intravenous administration of gadoterate meglumine (0.15 mmol Gd/kg). Post-contrast imaging was continued for upto 20 minutes after administration of gadoterate meglumine. In order to directly compare image quality between the two contrast agents, liposomal-Gd contrast agent (0.15 mmol Gd/kg) was administered a minimum of three hours later, allowing clearance of gadoterate meglumine. Post-liposomal-Gd contrast images were acquired using the same DCE-MRI protocol.
Pre-contrast and post-contrast scans were reviewed by a trained maternal-fetal radiologist (˜10 years of experience). T1 weighted GRE images and T2 weighted FSE images were included in the review. […] The visibility of target features in T1w and T2w images were scored by the radiologist on a 3-point scale: 0=not visible, 1=partly visible and 2=clearly visible. […]

[5] = placentae rated by blinded reader, 5-point scale, 9.4 T

Gd concentration in placentae and fetuses versus detection limit ([1]; 45 minutes and 90 minutes post injection, detection limit 0.318 nmol/g tissue)	Placental and fetal Gd concentrations, factor of each other ([1]; 90 minutes post-injection)	transplacental permeation ([1]; MRI images and ICP-MS analyses of placental and fetal tissue)	relaxivity (r1) [2] [s/mM]	time of image intensity peak after injection (pregnant Balb/c mice; DCE-MRI) [s]	Placental concentration ([3]; gadolinium peak from MRI data, mean, ROI around entire placenta, 0.08 mmol/kg) [µmol/L]	Fetal concentration ([3]; gadolinium peak from MRI data, mean, ROI around fetal sac, 0.08 mmol/kg) [µmol/L]	SMILES	Placental and fetal Gd concentrations relative to each other ([1]; 45 minutes post-injection)	Number observed with Placenta Visibility 1 (pregnant Balb/c mice; [5])	Number observed with Placenta Visibility 2 (pregnant Balb/c mice; [5])	Number observed with Placenta Visibility 3 (pregnant Balb/c mice; [5])	Number observed with Placenta Visibility 4 (pregnant Balb/c mice; [5])	Number observed with Placenta Visibility 5 (pregnant Balb/c mice; [5])	uptake of contrast agent in the fetal compartment ([3]; MRI, liposomal Gd even after 72 hr exposure)	visualization of the retroplacental space [4]
above the detection limit	≤ 2	avidly permeated the placental barrier	3.99 ± 0.52	11 to 15	0.60 ± 0.51	0.027 ± 0.01	CNC[C@H](O)[C@@H](O)[C@H](O)[C@H](O)CO.CNC[C@H](O)[C@@H](O)[C@H](O)[C@H](O)CO.O=C([O-])CN(CCN(CC(=O)[O-])CC(=O)O)CCN(CC(=O)O)C(COCc1ccccc1)C(=O)[O-].[Gd+3] (stereo not drawn) [Multihance, gadobenate dimeglumine]	within an order of magnitude of each other	1	6	25	15	7	uptake of contrast agent in the fetal compartment was observed	–
–	–	–	–	–	–	–	CNC[C@H](O)[C@@H](O)[C@H](O)[C@H](O)CO.O=C([O-])CN1CCN(CC(=O)[O-])CCN(CC(=O)O)CCN(CC(=O)[O-])CC1.[Gd+3] [gadoterate meglumine]	–	–	–	–	–	–	–	no consistent and reproducible visualization of the retroplacental space

Source: US11052162B2, “Liposomal gadolinium (GD) contrast agent “NMRX” for T1-MRI” (TEXAS CHILDREN'S HOSPITAL, priority 2016, dated 2021)
